From patent US20250231157A1, “METHOD FOR DETERMINING THE PARTITION OF NAPHTHENIC ACIDS FROM A PRODUCTION WATER MIMICKING SYSTEM AND MIMICKING SYSTEM” (PETRÓLEO BRASILEIRO S.A. – PETROBRAS, priority 2023, published 2025)
Values joined by “and” are separate entries in the source; they are usually repeats but may differ in a detail not shown here. Identical values can stand only once.

Assays:
[1] = Partition equilibrium under the influence of salinity (NaCl), glass reactor, neutralization titration; type: physicochemical; conditions: Salinity 0 (%, m · m^−1) NaCl
[2] = Control experiments: availability of the species in alkaline aqueous medium without using the reactor; type: physicochemical; conditions: acid solubilized directly in aqueous phase, no reactor
Procedure: Previously, the back titration procedure was internalized and optimized (Example 1), ensuring that the reproducibility of the measurements was adequate (standard deviation values below 10%, for example) and that the recoveries were close to what was expected based on the purity of the reagents (i.e., close to or above 90%). […] Control experiments were performed (measuring the availability of the species in an aqueous medium, without using the reactor) by solubilizing the organic acid directly in the aqueous phase and titrating a 10.0 mL aliquot; the same way, experiments were performed in the reactor based on the standardization of heptol and salinity already discussed (3.5%).

[3] = Partition equilibrium with addition of calcium and strontium salts to the aqueous phase; type: physicochemical
Procedure: The addition of salts to the reaction system is of fundamental importance when one intends to mimic field conditions. In this sense, in addition to continuing the study of the salinity effect (Example 4), the insertion of salts containing Ca^2+ and Sr^2+ ions, known to be present in seawater, was tested. To this end, the projects were based on the literature (Zheng, J. et al. Offshore produced water management: A review of current practice and challenges in harsh/Arctic environments. Mar. Pol. Bul. 2016, 104, 7-19) and four concentrations of each of the two ions were evaluated (400.0, 1200.0, 2600.0 and 9000.0 mg·L^−1), maintaining salinity at 3.5% (m·v^−1).
In short, the experimental results were generated in triplicate, using 99% NaCl to add salinity to the aqueous fraction and PA calcium chloride and PA strontium chloride to add calcium and strontium, respectively.
The addition of calcium and strontium to the reaction system, in the form of salts, aims at mimicking the real scenario in which both species are present (regardless of the salinity of the medium), especially in the well condition. This study aimed at understanding the effect (on the migration of acids to the organic phase) of this ion in the system also at concentrations higher than 10 mM. Finally, the experiments (in triplicate) with divalent strontium ions followed the same rationale.

[4] = Partition equilibrium in reactor pressurized with CO2, in presence and absence of alkalinity (NaHCO3, Na2CO3), back titration
Procedure: In the initial tests, 100 mL of heptol and 300 mL of water (with or without salinity) were used, with the addition of acidic species in the organic phase, in order to verify migration to the aqueous phase. As a rule, the system was kept under agitation at 500 rpm for 8 min, followed by rest for 10 min and, finally, collection of 50.0 mL aliquots of the aqueous phase for titrimetric analysis.
A 316 stainless steel alloy reactor (Parr®) (capacity for 600 mL and operational up to 20 MPa pressure) was used. For this purpose, a temperature range between 25° C. and 80° C. and pressure between 0.1 MPa and 1.0 MPa were used, and the reactor was pressurized with CO2. Thus, the results were compared (in terms of migration of the acidic species (%, mol) by means of back titrations) and the influence of pressure and temperature on the partition was estimated, as well as possible synergistic effects with the sources of alkalinity added to the aqueous phase.

[5] = Partition equilibrium under the influence of salinity (NaCl), glass reactor, neutralization titration; type: physicochemical
Procedure: The variation in salinity (and its effect on acidic species) is due to the large variation in salinity found between the portions of bottom-hole water, middle-well water and surface water. Thus, systems with salinity (i.e., NaCl) between 3.5 and 30% (m·v^−1) were tested in a glass reactor, and neutralization titration was performed (in triplicate analysis), as previously described. Furthermore, the experimental results were generated in triplicate, using 99% NaCl (Sigma-Aldrich) with five acidic species.

[6] = Partition equilibrium (migration to aqueous phase) heptol/water under pressure and temperature, central composite design, potentiometric titration; type: physicochemical; conditions: for Migration, Predicted: model value
Procedure: Three multivariate experimental designs (central composite designs) were performed in which the variables pressure (up to 1 MPa) and temperature (between 25° C. and 80° C.) were considered independent variables, with the migration of three acidic species as the response factor: benzoic, pentanoic and cyclohexanepentanoic acid. For this purpose, 5 levels were defined and gave rise to 10 experiments for each acidic species (Table 4), added to two control experiments (with higher pressure and temperature, as well as in the absence of pressure and at room temperature).
The experiments were performed with constant salinity of 3.5% (m·v^−1), constant heptol fraction (70:30, for heptane and toluene), and acidic species concentration of 0.03 M for benzoic and pentanoic acid, and 0.01 M for cyclohexanepentanoic acid. The results were evaluated with 95% confidence, using a response surface to estimate the maximum observable effect in each case, provided that the mathematical correlation was equal to or greater than R^2: 0.75.

[7] = 52 °C, 0.5 MPa (experiments 9 and 10)

## O=C(O)c1ccccc1 [Benzoic Acid, benzoic acid]
[1]
  Migration: 82.9 %, mol
[2]; Na2CO3 + NaHCO3 (3.48×10^−5 mol)
  Availability (reference value): 72.2 % mol
[2]; NaHCO3 (3.45×10^−5 mol)
  Availability (reference value): 83.1 % mol
[3]; Absence of ions, salinity 3.5%
  Migration: 82.0 %, mol
[3]; Calcium 400 mg · L^−1, salinity 3.5%
  Migration: 80.0 %, mol
[3]; Calcium 1200 mg · L^−1, salinity 3.5%
  Migration: 56.7 %, mol
[3]; Calcium 2600 mg · L^−1, salinity 3.5%
  Migration: 56.7 %, mol
[3]; Strontium 400 mg · L^−1, salinity 3.5%
  Migration: 83.0 %, mol
[3]; Strontium 1200 mg · L^−1, salinity 3.5%
  Migration: 83.0 %, mol
[3]; Strontium 2600 mg · L^−1, salinity 3.5%
  Migration: 83.0 %, mol
[3]; calcium ions, salinity 3.5%
  Extent of salting out effect in the presence of calcium: greater than 30%
[3]; strontium ions
  Migration to the aqueous phase in the presence of strontium: above 80 % (m·v^−1)
[4]; 25° C. and 1.0 MPa CO2, no alkalinity
  Migration: 64.4 % mol
[4]; 80° C. and 1.0 MPa CO2, no alkalinity
  Migration: 59.3 % mol
[4]; Na2CO3 + NaHCO3, 25° C. and 0.1 MPa
  Migration: 49.3 % mol
[4]; Na2CO3 + NaHCO3, 25° C. and 1.0 MPa CO2
  Migration: 100 % mol
[4]; Na2CO3 + NaHCO3, 80° C. and 1.0 MPa CO2
  Migration: 88.3 % mol
[4]; NaHCO3, 25° C. and 0.1 MPa
  Migration: 53.6 % mol
[4]; NaHCO3, 25° C. and 1.0 MPa CO2
  Migration: 93.3 % mol
[4]; NaHCO3, 80° C. and 1.0 MPa CO2
  Migration: 88.9 % mol and 88.6 % mol
[4]; Reference (heptol + 3.5% NaCl), no alkalinity
  Migration: 82.0±3.0 % mol and 82 % mol
[5]; 30% (m·v^−1) NaCl versus tests without salinity
  Salting out effect (reduction in the number of moles contained in the aqueous phase): approximately 400%
[5]; Salinity 3.5 (%, m · m^−1) NaCl
  Migration: 83.0 %, mol
[5]; Salinity 18.0 (%, m · m^−1) NaCl
  Migration: 41.0 %, mol
[5]; Salinity 30.0 (%, m · m^−1) NaCl
  Migration: 22.5 %, mol
[5]; Salinity 30.0 (%, m · m^−1) NaCl, listed as benzoic acid
  Migration: 22.51 %, mol
[6]; 20 °C, 0.1 MPa (experiment 12, control)
  Migration, Measured: 57.0 %, mol
[6]; 25 °C, 0.5 MPa (experiment 5)
  Migration, Increment (related to control): 2.7 %, mol
  Migration, Measured: 58.6 %, mol
  Migration, Predicted: 57.5 %, mol
[6]; 38 °C, 0.25 MPa (experiment 1)
  Migration, Increment (related to control): 6.9 %, mol
  Migration, Predicted: 62.5 %, mol
[6]; 38 °C, 0.25 MPa (experiment 1), heptol 70:30, 3.5% salinity
  Migration, Measured: 61.0 %, mol
[6]; 38 °C, 0.75 MPa (experiment 3)
  Migration, Increment (related to control): 4.6 %, mol
  Migration, Measured: 59.7 %, mol
  Migration, Predicted: 62 %, mol
[6]; 52 °C, 0.1 MPa (experiment 7)
  Migration, Increment (related to control): 16.4 %, mol
  Migration, Measured: 66.4 %, mol
  Migration, Predicted: 66.1 %, mol
[6]; [7]
  Migration, Increment (related to control): 14.5 %, mol and 14.3 %, mol
  Migration, Predicted: 66.6 %, mol
[6]; 52 °C, 0.5 MPa (experiments 9 and 10, centre point)
  Migration, Measured: 65.3 %, mol and 65.2 %, mol
[6]; 52 °C, 1 MPa (experiment 8)
  Migration, Increment (related to control): 16.8 %, mol
  Migration, Measured: 66.7 %, mol
  Migration, Predicted: 65.5 %, mol
[6]; 66 °C, 0.25 MPa (experiment 2)
  Migration, Increment (related to control): 21.2 %, mol
  Migration, Measured: 69.2 %, mol
  Migration, Predicted: 69.8 %, mol
[6]; 66 °C, 0.75 MPa (experiment 4)
  Migration, Increment (related to control): 19.8 %, mol
  Migration, Measured: 68.4 %, mol
  Migration, Predicted: 69.8 %, mol
[6]; 80 °C, 0.5 MPa (experiment 6)
  Migration, Increment (related to control): 27.9 %, mol
  Migration, Measured: 73.0 %, mol
  Migration, Predicted: 72.7 %, mol
[6]; 80 °C, 1 MPa (experiment 11)
  Migration, Increment (related to control): 26.3 %, mol
  Migration, Predicted: 66.6 %, mol
[6]; 80 °C, 1 MPa (experiment 11, control)
  Migration, Measured: 72.1 %, mol
